Measurements as given in publication PMC12514577, “Activity-based probes and chemical proteomics uncover the biological impact of targeting HMG-CoA Synthase 1 in the mevalonate pathway” (The Journal of Biological Chemistry, 2025).

Key:
[1] = target: T1, 3-hydroxy-3-methylglutaryl-coenzyme A synthase 1 (HMGCS1) (Homo sapiens, UniProt Q01581); test: competitive affinity purification TMT mass spectrometry and immunoblot in HEK293T cells; type: cell-based; set-up: endogenous HMGCS1 in HEK293T cells
T1 sequence (Q01581 1-520): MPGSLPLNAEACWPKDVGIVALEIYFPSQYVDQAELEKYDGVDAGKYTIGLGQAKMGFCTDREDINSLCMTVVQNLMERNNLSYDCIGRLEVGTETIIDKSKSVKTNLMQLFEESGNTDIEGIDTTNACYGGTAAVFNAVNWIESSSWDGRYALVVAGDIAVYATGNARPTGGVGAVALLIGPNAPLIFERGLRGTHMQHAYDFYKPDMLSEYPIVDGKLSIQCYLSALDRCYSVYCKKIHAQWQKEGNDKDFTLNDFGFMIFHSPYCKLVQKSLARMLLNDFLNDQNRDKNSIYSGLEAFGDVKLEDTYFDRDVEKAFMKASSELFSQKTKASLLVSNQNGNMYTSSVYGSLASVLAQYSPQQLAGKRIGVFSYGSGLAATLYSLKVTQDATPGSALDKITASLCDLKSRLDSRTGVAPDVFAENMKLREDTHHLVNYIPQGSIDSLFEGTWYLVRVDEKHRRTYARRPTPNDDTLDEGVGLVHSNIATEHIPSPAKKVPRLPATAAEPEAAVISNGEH

[2] = target: T1, 3-hydroxy-3-methylglutaryl-coenzyme A synthase 1 (HMGCS1); test: Glu-C MS/MS of adduct on recombinant HMGCS1; dose-dependent competition with HG-FL in gel; competitive chemoproteomics in HEK293T; type: binding; set-up: recombinant HMGCS1 (pET60b-HMGCS1-TEV-6His)

Structure (SMILES)	competitive affinity purification TMT mass spectrometry and immunoblot in HEK293 [1]	Glu-C MS/MS of adduct on recombinant HMGCS1; dose-dependent competition with HG- [2]
CC(=C\C(=O)NCCOCCOCCNC(=O)CCCC[C@@H]1SC[C@@H]2NC(=O)N[C@@H]21)/C=C(\C)C[C@H](C)CCCC[C@H]1OC(=O)[C@@H]1CO [HG-biotin, Hymeglusin-biotin]	An orthogonal immunoblotting assay confirmed the strong enrichment of HMGCS1 by HG-biotin in DMSO pre-treated cells	–
CC(=C\C(=O)O)/C=C(\C)C[C@H](C)CCCC[C@H]1OC(=O)[C@@H]1CO [HG, Hymeglusin]	–	Mass spectrometry analysis of recombinant HMGCS1, after incubation with HG, further confirmed the modification of C129 by HG
